Where “and” joins values, the source holds several entries; their conditions need not be identical. Identical values can stand only once.
Experiments:
[1] = Solubility / precipitation in aquacultural water; format: physicochemical; conditions: for lowest precipitation concentration / lowest precipitation concentration (bracketed value in LC50 48 h column) / lowest precipitation concentration (bracketed value in LC50 72 h column): test range 0.4~100 mg/L, aquacultural water, LC50 NONE; for solubility in aquacultural water: tested concentration 16 mg/L, 28 °C
Protocol: Prior to evaluation of the anti-WSSV activity of coumarins, the safety doses for larvae needed to be determined. […] In contrast, the electron-withdrawing group was more toxic than the electron-donating group, with the LC50 of A5‒A8 being <5 mg/L at 72 h. […] Based on preliminary analysis of the structure-activity relationship (SAR) of similar spatial structures with different substituents of electron-donating and electron-withdrawing groups to coumarins A1, B1, and C1, we considered that […] of compounds; this provides a basis for further research.
All conventional reagents and solvents are purchased directly from commercial companies and no further purification is required. Organic solvents were purchased from Sinopharm chemical reagent Co., Ltd. and purified by distillation and moisture was excluded from the glass apparatus using CaCl2 drying tubes. Throughout this study, silica gel H (200–300 mesh; Qingdao Marine Chemical Factory, Qingdao, China) was used for the column chromatography. For thin layer chromatographic (TLC) plates, Silica gel (GF254) (Qingdao Marine Chemical Factory, Qingdao, China) were used for thin layer chromatographic (TLC) analysis, and all of the spots and bands were detected by UV irradiation (254, 365 nm). The intermediates and products were characterized by electrospray ionization mass spectrometry (TripleTOF5600þ; AB SCIEX Pte. Ltd., Boston, MA, USA), ^1H NMR and ^13C NMR (Bruker AM500 spectrometer; Bruker Corporation, Berne, Switzerland). The derivatives were dissolved in 100% dimethyl sulfoxide (DMSO; Beyotime Biotechnology, Haimen, China), stored at 4 °C prior to antiviral evaluation, and used within 6 months. For solubility, the stock solutions, at a concentration of 50 mg/mL, were sonicated for approximately 10 min to ensure that the derivatives were fully dissolved and mixed.

[2] = tested on: white spot syndrome virus (WSSV); assay: Anti-WSSV activity in shrimp larvae, co-incubation, copy number of viral genome by RT-qPCR; format: in vivo, Litopenaeus vannamei; conditions: for copy number of the viral genome in sick or dead shrimp homogenates: 24, 48 and 72 hpi, up to 10 mg/L; for inhibitory efficiency on WSSV replication: six-point dose-response, viral genome copy number in larvae
[3] = tested on: white spot syndrome virus (WSSV); assay: Pre-exposure (pre-treatment) of larvae to compound before WSSV infection; format: in vivo, Litopenaeus vannamei; conditions: for change in copy number of the viral genome, pre-exposure vs virus alone: larvae exposed up to 8 h prior to WSSV infection, 10 mg/L; for time to which shrimp death was delayed: pre-exposure 10 mg/L, untreated 100% mortality by 72 h
Protocol: For pre-treatment, C2/C7 (final concentration of 10 mg/L) was applied to shrimp larvae for 1, 4, and 8 h, followed by addition of WSSV (while the coumarin compounds were simultaneously removed) at a final viral titer of 1.6 × 10^5 copies/µL. The surviving shrimps were euthanized with MS-222 and frozen at −80 °C until being processed. The copy number of viral genome in samples was quantified by RT-qPCR.

[4] = tested on: Shrimp (L. vannamei) larvae; assay: Acute toxicity assay in shrimp larvae; format: in vivo, Litopenaeus vannamei; conditions: after 72 h of exposure
Protocol: Shrimp (L. vannamei) larvae (total length: 0.5 ± 0.04 cm, body weight: 4.2 ± 0.4 mg, mean ± SD) were provided by Zhejiang Mariculture Research Institute Qingjiang Station (Wenzhou, China). The larvae were maintained in a culture pond at 28 °C, fed four times a day with commercial feed pellets, and collected randomly for PCR testing to verify the WSSV-free status prior to the trial.
Acute toxicity of the coumarin derivatives was investigated by exposing larvae to a range of compound concentrations, from 0.1 mg/L to 100 mg/L of coumarin derivatives, where the dose setting was based on the data from preliminary tests in our laboratory. A DMSO-control (2%, v/v, the highest percentage of DMSO in treatments) served as the control. During the experiment, every 20 larvae were moved into six-well plates filled with 6 mL/per well freshly prepared test solutions for a 72-h incubation at 28 °C with a natural photoperiod. […] To avoid deterioration of water quality, dead shrimps were immediately removed at the point of observation. Three replicate experiments were performed.
Compound response curves were represented by a logistic sigmoidal function with a maximal effect level (Amax) and Hill coefficient representing the sigmoidal transition (Origin 8.1; http://www.originlab.com, accessed on 25 March 2021). Statistical analyses were performed using SPSS (version 18.0) statistical software (SPSS Inc., Chicago, IL, USA). The LC50 and EC50 values with 95% CIs were calculated using probit analysis. Virus titers were log10-transformed prior to statistical analyses. Unpaired Student’s t-tests were used to compare coumarin-treated samples and negative-control DMSO samples for determining significance and data are presented as mean values ± SD.

[5] = tested on: white spot syndrome virus (WSSV); assay: Continuous immersion with compound exchange after WSSV infection; format: in vivo, Litopenaeus vannamei; conditions: for survival rate: 10 mg/L
Protocol: For continuous immersion with cultural medium exchange, the culture water in each well was replaced by C2/C7 or DMSO solution after WSSV infection (final viral titer of 1.6 × 10^5 copies/µL) for 24 h. Every 24 h, the shrimp were transformed into a new challenge well with fresh water and a fresh dose of C2/C7 or DMSO (0.2‰) for an additional 5 days. The survival shrimps were euthanized with MS-222 and frozen at −80 °C until processing. The survival of shrimp larvae and the copy number of viral genome in samples were described as above.

[6] = tested on: white spot syndrome virus (WSSV); assay: Stability assay in aquacultural water (residual anti-WSSV activity); parameters: species or system Litopenaeus vannamei; conditions: 28 °C, nonlinear regression best-fit
Protocol: Aquaculture water was obtained from culture ponds of the Zhejiang Mariculture Research Institute Qingjiang Station. C2/C7, with a final concentration of 10 mg/L, was added to aquacultural water samples in the presence of natural light for up to 4 days, at 28 °C, and finally preincubated with WSSV (final viral titer of 1.6 × 10^5 copies/µL) to infect shrimp larvae, followed by quantification of the copy number of the viral genome at 72 hpi, and the survival rate of the shrimp was evaluated.

[7] = tested on: white spot syndrome virus (WSSV); assay: Horizontal transmission of WSSV to naive recipient larvae; format: in vivo, Litopenaeus vannamei; conditions: 10 mg/L, each time point
Protocol: Shrimp larvae were infected with 1.6 × 10^5 copies/µL WSSV or aquacultural water only. At 24 hpi, a total of the 12 donor shrimps were placed into each challenge beaker (100 mL of water and a continuous air supply), and C2 (10 mg/L final concentration) or DMSO (0.2‰ final concentration) was added to each challenge beaker. Every 24 h, five donor and fifteen recipient shrimp were netted into a new challenge beaker with fresh water and a fresh dose of C2/C7 (10 mg/L) or DMSO (0.2‰). After 72 h of cohabitation, the surviving recipient shrimps were euthanized with MS-222 and frozen at −80 °C. In order to distinguish the donor and recipient samples in this test, we chose the larger shrimp as the recipients (total length of 1.1 ± 0.2 cm, body weight of 6.9 ± 0.5 mg, mean values ± SD) and placed a sieve in the challenge beaker to separate the donor and recipient shrimps.

[8] = WSSV-infected larvae, copy number of viral genome, 72 h, 95% CI in brackets
[9] = 60 h after exposure, larvae pre-infected 24 h, no exchange, untreated 0%
[10] = at 120 h, compound exchanged one to four times

Molecule	lowest precipitation concentration [1]	lowest precipitation concentration (bracketed value in LC50 48 h column) [1]	lowest precipitation concentration (bracketed value in LC50 72 h column) [1]	solubility in aquacultural water [1]	copy number of the viral genome in sick or dead shrimp homogenates [2]	EC50 (mg/L; 95% CI), median effective concentration [2, 8]	EC50 ([2]; Whispovirus xiabaidian, 72 h, read-out: EC50 (mg/L; 95% CI), median effective concentration, WSSV-infected larvae, copy number of viral genome, 72 h, 95% CI in brackets)	inhibitory efficiency on WSSV replication [2]	change in copy number of the viral genome, pre-exposure vs virus alone [3]	time to which shrimp death was delayed [3]	signs of toxicity at the saturation concentration [4]	survival rate [5, 9]	mortality with continuous immersion of compound exchange ([5]; at 120 h)	survival rate [5, 10]	half-life at 10 mg/L ([6]; buffer, read-out: calculated inhibitory half-life in water samples (converted))	WSSV replication in naïve recipient larvae [7]	MAR (%), maximum antiviral response ([2]; WSSV-infected larvae, viral genome copy number normalized to no treatment, low value = strong inhibition, mean ± SD)	calculated inhibitory half-life in water samples ([6]; 10 mg/L)
Cc1ccc(C2C(C#N)=C(N)Oc3c2c(=O)oc2ccccc32)cc1 (centres unmarked) [C2, 2-amino-5-oxo-4-(p-tolyl)-4H,5H-pyrano[3,2-c]chromene-3-carbonitrile]	NONE (16) mg/L	NONE (16) mg/L	NONE (16) mg/L	insoluble	down-regulated	05.993 (5.327~6.851) mg/L	< 10 mg/L	exceeded 90%	slight changes	96 hpi	No signs of toxicity were observed	50%	40%	more than 60%	55.2 h	significantly downregulated		
2-amino-4-(4-chlorophenyl)-5-oxo-4H,5H-pyrano[3,2-c]chromene-3-carbonitrile [C7]	NONE (16) mg/L	NONE (16) mg/L	NONE (16) mg/L	insoluble	down-regulated	< 10 mg/L and 05.727 (5.069~6.577) mg/L		exceeded 90%	slight changes	96 hpi	No signs of toxicity were observed	50%	40%	more than 60%		significantly downregulated	03.154 ± 1.157%	57.6 h

Source: article PMC8036603, “Small Molecule Inhibitors of White Spot Syndrome Virus: Promise in Shrimp Seedling Culture” (International Journal of Molecular Sciences, 2021)
